Laboratory results as given in PubChem BioAssay (NCI).
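Values below derive from 48-hour exposures of cells grown in 96-well plates, with endpoints linearly interpolated between the two concentrations bracketing the appropriate inhibition level. TGI: concentration producing complete growth inhibition.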

Assays:
Experiment in all cases: growth of human tumour cells (NCI), 48 h
[1] = system: SF-295 CNS
[2] = system: MOLT-4 leukemia
[3] = system: KM12 colon
[4] = system: DLD-1 colon
[5] = system: HCC-2998 colon
[6] = system: UACC-257 melanoma
[7] = system: SR leukemia
[8] = system: RXF 393 renal
[9] = system: SF-268 CNS
[10] = system: CAKI-1 renal
[11] = system: OVCAR-3 ovarian
[12] = system: TK-10 renal
[13] = system: LXFL 529 NSCLC
[14] = system: MALME-3M melanoma
[15] = system: M19-MEL melanoma
[16] = system: UACC-62 melanoma
[17] = system: OVCAR-5 ovarian
[18] = system: SK-MEL-2 melanoma
[19] = system: HOP-18 NSCLC
[20] = system: SNB-75 CNS
[21] = system: HOP-92 NSCLC
[22] = system: HCT-116 colon
[23] = system: RPMI-8226 leukemia
[24] = system: K-562 leukemia
[25] = system: U251 CNS
[26] = system: NCI-H460 lung
[27] = system: OVCAR-4 ovarian
[28] = system: SK-MEL-28 melanoma
[29] = system: LOX IMVI melanoma
[30] = system: OVCAR-8 ovarian
[31] = system: SK-OV-3 ovarian
[32] = system: NCI-H226 lung
[33] = system: SK-MEL-5 melanoma
[34] = system: COLO 205 colon
[35] = system: NCI-H522 lung
[36] = system: SNB-78 CNS
[37] = system: IGROV1 ovarian
[38] = system: SF-539 CNS
[39] = system: KM20L2 colon
[40] = system: SNB-19 CNS
[41] = system: A549 NSCLC
[42] = system: 786-0 renal
[43] = system: HT29 colon
[44] = system: CCRF-CEM leukemia
[45] = system: SN12C renal
[46] = system: DU-145 prostate
[47] = system: M14 melanoma
[48] = system: HCT-15 colon
[49] = system: HL-60(TB) leukemia
[50] = system: SW-620 colon
[51] = system: A498 renal
[52] = system: UO-31 renal
[53] = system: NCI-H23 lung
[54] = system: EKVX NSCLC
[55] = system: ACHN renal
[56] = system: DMS 273 small cell lung
[57] = system: HOP-62 NSCLC
[58] = system: XF 498 CNS
[59] = system: DMS 114 small cell lung

`C=C=C(Sc1ccccc1)C(C)(C)OC(C)=O` was tested. Which TGI [1] did it give?
The TGI was 33.6 µM.

What about the TGI [2] of the same molecule?
Its TGI is greater than 100 µM.

What about the TGI [3] of the same molecule?
The TGI was 31.4 µM.

What about the TGI [4] of the same molecule?
The TGI was 31.5 µM.

What about the TGI [5] of the same molecule?
Its TGI is 43.1 µM.

What about the TGI [6] of the same molecule?
The TGI was 32.4 µM.

What about the TGI [7] of the same molecule?
The TGI was greater than 100 µM.

What about the TGI [8] of the same molecule?
Its TGI is 28.4 µM.

What about the TGI [9] of the same molecule?
Its TGI is 27.7 µM.

What about the TGI [10] of the same molecule?
Its TGI is 90.2 µM.

What about the TGI [11] of the same molecule?
The TGI was 31.1 µM.

What about the TGI [12] of the same molecule?
Its TGI is greater than 100 µM.

What about the TGI [13] of the same molecule?
The TGI was 38.3 µM.

And the TGI [14]?
The TGI was 35.3 µM.

What about the TGI [15] of the same molecule?
Its TGI is 30.6 µM.

And the TGI [16]?
Its TGI is 29.2 µM.

And the TGI [17]?
Its TGI is 45.2 µM.

What about the TGI [18] of the same molecule?
The TGI was 35 µM.

And the TGI [19]?
The TGI was 38.5 µM.

What about the TGI [20] of the same molecule?
The TGI was 49.8 µM.

What about the TGI [21] of the same molecule?
Its TGI is 34.2 µM.

What about the TGI [22] of the same molecule?
Its TGI is 27.7 µM.

What about the TGI [23] of the same molecule?
The TGI was greater than 100 µM.

And the TGI [24]?
The TGI was 52 µM.

And the TGI [25]?
Its TGI is 31.6 µM.

And the TGI [26]?
Its TGI is 46.8 µM.

What about the TGI [27] of the same molecule?
Its TGI is greater than 100 µM.

What about the TGI [28] of the same molecule?
The TGI was 31.4 µM.

What about the TGI [29] of the same molecule?
Its TGI is 30.9 µM.

What about the TGI [30] of the same molecule?
The TGI was 46.9 µM.

What about the TGI [31] of the same molecule?
The TGI was 51.9 µM.

And the TGI [32]?
Its TGI is 45.4 µM.

What about the TGI [33] of the same molecule?
Its TGI is 29.3 µM.

What about the TGI [34] of the same molecule?
The TGI was 32.5 µM.

What about the TGI [35] of the same molecule?
Its TGI is 29.6 µM.

What about the TGI [36] of the same molecule?
Its TGI is 91.4 µM.

And the TGI [37]?
The TGI was 33.3 µM.

What about the TGI [38] of the same molecule?
The TGI was 29.8 µM.

And the TGI [39]?
The TGI was 58.7 µM.

And the TGI [40]?
Its TGI is 40.4 µM.

What about the TGI [41] of the same molecule?
Its TGI is 74.8 µM.

And the TGI [42]?
Its TGI is 30.1 µM.

What about the TGI [43] of the same molecule?
Its TGI is 37 µM.

What about the TGI [44] of the same molecule?
Its TGI is 58.7 µM.

And the TGI [45]?
Its TGI is 31.1 µM.

And the TGI [46]?
Its TGI is 90.2 µM.

And the TGI [47]?
The TGI was 32.4 µM.

And the TGI [48]?
The TGI was 46.9 µM.

And the TGI [49]?
Its TGI is 81 µM.

And the TGI [50]?
The TGI was 33.7 µM.

And the TGI [51]?
The TGI was 42.6 µM.

What about the TGI [52] of the same molecule?
The TGI was 28.6 µM.

And the TGI [53]?
Its TGI is 32.9 µM.

With `CC#CC1C(OC(=O)c2ccccc2)CCCC1(CI)N=[N+]=[N-]` (stereo not drawn) as the molecule, how does the TGI [1] read?
Its TGI is greater than 100 µM.

What about the TGI [2] of the same molecule?
The TGI was 44.4 µM.

And the TGI [54]?
Its TGI is greater than 100 µM.

And the TGI [3]?
The TGI was greater than 100 µM.

What about the TGI [4] of the same molecule?
The TGI was greater than 100 µM.

What about the TGI [5] of the same molecule?
Its TGI is greater than 100 µM.

And the TGI [6]?
The TGI was greater than 100 µM.

What about the TGI [7] of the same molecule?
The TGI was 55.2 µM.

What about the TGI [55] of the same molecule?
Its TGI is greater than 100 µM.

What about the TGI [8] of the same molecule?
The TGI was greater than 100 µM.

And the TGI [9]?
The TGI was greater than 100 µM.

What about the TGI [10] of the same molecule?
Its TGI is greater than 100 µM.

And the TGI [11]?
Its TGI is greater than 100 µM.

And the TGI [56]?
The TGI was greater than 100 µM.

And the TGI [12]?
Its TGI is greater than 100 µM.

And the TGI [13]?
The TGI was greater than 100 µM.

What about the TGI [57] of the same molecule?
Its TGI is greater than 100 µM.

And the TGI [14]?
The TGI was greater than 100 µM.

And the TGI [15]?
The TGI was greater than 100 µM.

What about the TGI [16] of the same molecule?
The TGI was greater than 100 µM.

What about the TGI [17] of the same molecule?
The TGI was greater than 100 µM.

What about the TGI [18] of the same molecule?
Its TGI is greater than 100 µM.

And the TGI [19]?
The TGI was greater than 100 µM.

What about the TGI [20] of the same molecule?
The TGI was greater than 100 µM.

And the TGI [21]?
Its TGI is greater than 100 µM.

And the TGI [22]?
Its TGI is greater than 100 µM.

What about the TGI [23] of the same molecule?
Its TGI is 86.2 µM.

And the TGI [24]?
The TGI was greater than 100 µM.

What about the TGI [58] of the same molecule?
The TGI was 78.7 µM.

What about the TGI [25] of the same molecule?
Its TGI is greater than 100 µM.

And the TGI [26]?
The TGI was greater than 100 µM.

What about the TGI [27] of the same molecule?
The TGI was greater than 100 µM.

What about the TGI [30] of the same molecule?
The TGI was greater than 100 µM.

What about the TGI [31] of the same molecule?
The TGI was greater than 100 µM.

What about the TGI [32] of the same molecule?
Its TGI is greater than 100 µM.

And the TGI [33]?
The TGI was 42.2 µM.

And the TGI [34]?
Its TGI is greater than 100 µM.

And the TGI [59]?
The TGI was 99.2 µM.

And the TGI [35]?
Its TGI is 63.8 µM.

What about the TGI [36] of the same molecule?
Its TGI is greater than 100 µM.

And the TGI [37]?
Its TGI is greater than 100 µM.

And the TGI [38]?
Its TGI is greater than 100 µM.

What about the TGI [39] of the same molecule?
Its TGI is greater than 100 µM.

And the TGI [41]?
Its TGI is greater than 100 µM.

What about the TGI [42] of the same molecule?
Its TGI is greater than 100 µM.

What about the TGI [43] of the same molecule?
Its TGI is greater than 100 µM.

What about the TGI [44] of the same molecule?
The TGI was greater than 100 µM.

What about the TGI [45] of the same molecule?
Its TGI is greater than 100 µM.

What about the TGI [47] of the same molecule?
The TGI was greater than 100 µM.

What about the TGI [48] of the same molecule?
The TGI was greater than 100 µM.

And the TGI [49]?
The TGI was 42.2 µM.

And the TGI [50]?
Its TGI is greater than 100 µM.

And the TGI [51]?
The TGI was greater than 100 µM.

What about the TGI [52] of the same molecule?
The TGI was greater than 100 µM.

And the TGI [53]?
Its TGI is greater than 100 µM.
